Data taken from paper PMC11655196, “Angiotensin-I-converting enzyme inhibitory peptides from eel (Anguilla japonica) bone collagen: preparation, identification, molecular docking, and protective function on HUVECs” (Frontiers in Nutrition, 2024).
Read-outs that look alike come from different tables or passages of the source. One block for each substance: values may come before it. Ends that are not written are not given here.

How the values were obtained:
ACE [1] = settings: read-out: IC50 (blood pressure lowering peptide, ACE), cited from earlier work
Text: There were various peptides derived from food that are recognized for their ability to inhibit ACE activity, potentially leading to a reduction in blood pressure levels in vivo ([6]).

ACE [2] = target: T1, ACE (Oryctolagus cuniculus, UniProt P12822); assay: ACE inhibition kinetics (Lineweaver-Burk plots); type: biochemical, rabbit; settings: GPPGPPGL 0–100 μM, HHL 2 to 5 mM
T1 construct: ACE (≥2.0 U/mg, rabbit lung) was purchased; purchased Shanghai Yuanye Biotechnology Co., Ltd. (Shanghai, China); host or cells: rabbit lung (tissue-derived)
T1 sequence (P12822 34-1310): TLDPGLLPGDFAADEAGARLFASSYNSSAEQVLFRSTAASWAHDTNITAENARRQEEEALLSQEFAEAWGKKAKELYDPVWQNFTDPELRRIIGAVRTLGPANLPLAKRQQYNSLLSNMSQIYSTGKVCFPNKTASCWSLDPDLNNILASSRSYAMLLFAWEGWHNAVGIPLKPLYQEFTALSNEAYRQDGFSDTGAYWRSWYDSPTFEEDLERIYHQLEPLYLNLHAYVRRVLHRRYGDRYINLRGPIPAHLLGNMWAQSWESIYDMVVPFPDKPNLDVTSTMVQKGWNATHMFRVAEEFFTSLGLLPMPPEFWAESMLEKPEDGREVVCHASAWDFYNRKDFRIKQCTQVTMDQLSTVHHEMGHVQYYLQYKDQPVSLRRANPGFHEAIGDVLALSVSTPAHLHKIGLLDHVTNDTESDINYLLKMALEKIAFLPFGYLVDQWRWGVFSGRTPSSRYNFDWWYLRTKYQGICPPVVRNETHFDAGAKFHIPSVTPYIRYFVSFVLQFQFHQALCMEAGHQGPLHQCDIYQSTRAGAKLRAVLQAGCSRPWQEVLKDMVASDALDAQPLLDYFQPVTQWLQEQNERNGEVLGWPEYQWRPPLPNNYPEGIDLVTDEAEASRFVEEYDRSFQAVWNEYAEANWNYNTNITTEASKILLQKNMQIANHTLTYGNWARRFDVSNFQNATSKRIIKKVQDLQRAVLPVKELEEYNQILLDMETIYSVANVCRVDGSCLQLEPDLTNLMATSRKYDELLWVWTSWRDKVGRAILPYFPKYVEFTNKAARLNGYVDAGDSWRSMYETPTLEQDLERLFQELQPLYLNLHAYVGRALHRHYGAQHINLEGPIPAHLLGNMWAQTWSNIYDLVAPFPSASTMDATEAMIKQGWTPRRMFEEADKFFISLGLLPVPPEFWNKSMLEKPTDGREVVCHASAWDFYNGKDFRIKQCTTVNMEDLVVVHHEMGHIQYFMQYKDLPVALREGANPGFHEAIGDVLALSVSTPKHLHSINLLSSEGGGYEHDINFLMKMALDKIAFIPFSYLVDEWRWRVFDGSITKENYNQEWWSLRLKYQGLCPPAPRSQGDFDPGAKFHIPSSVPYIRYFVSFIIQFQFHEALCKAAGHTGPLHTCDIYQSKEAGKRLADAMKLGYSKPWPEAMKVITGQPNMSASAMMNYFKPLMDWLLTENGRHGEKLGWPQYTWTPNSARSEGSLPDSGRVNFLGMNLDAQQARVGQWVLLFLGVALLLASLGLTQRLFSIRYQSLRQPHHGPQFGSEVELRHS
Description: The ACE inhibition kinetics of the chosen peptides were determined using the method of previous research ([20]), using Lineweaver–Burk plots. The measurement of ACE activity was conducted at different concentrations of peptides, and HHL concentrations ranging from 2 to 5 mM were included. The Michaelis–Menten kinetic equation was used to compute the Michaelis–Menten constant (Km) and maximum reaction rate (Vmax) using data obtained from the Lineweaver–Burk plots.

[3] = from conger eel (Conger myriaster); read-out: IC50 (anti-oxidative effects); cited from earlier work
Text: Anguilla japonica, also known as eel, is a type of aquatic food that contains high levels of protein, fat, vitamin A, vitamin E, and other nutrients ([11]). It is particularly abundant in collagen. Eel processing is mainly based on grilled eel, most of which is exported abroad. During the eel processing of eels, various by-products such as fish heads and bones are generated. These by-products are mainly used in the production of animal feed or discarded. Eel bones have approximately 13.25% of protein, 19.18% of lipid, 5.63% of ash, and 56.96% of moisture content ([12]). Some bioactive peptides ...

Substance: Trp-Pro-Met-Gly-Phe [literature peptide from Cyclina sinensis]
IC50 (ACE [1]; from Cyclina sinensis): 789 µM

Km with increasing peptide level (ACE [2]): increase
Substance: GPPGPPGL [GPPGPPGL]

Substance: Ile-Pro-Ile-Lys [literature peptide from Euphausia superba]
IC50 (ACE [1]; from Euphausia superba): 57.4 µM

Substance: LGLNGDDVN [literature anti-oxidative peptide from conger eel (Conger myriaster)]
IC50 [3]: 78.5 µM

Substance: Gln-Val-Glu-Tyr [literature peptide from Gracilariopsis lemaneiformis]
IC50 (ACE [1]; from Gracilariopsis lemaneiformis): 474 µM
